In patent publication US11998539B2, “Substituted aminoquinolones as DGKalpha inhibitors for immune activation” (Bayer Aktiengesellschaft, priority 2019, dated 2024):

Test system: intracranially injected GBM tumors
Test: not given
Conditions: concurrent administration; Dominguez et al. 2013; cited from earlier work

Q: For `Cc1nc2sccn2c(=O)c1CCN1CCC(=C(c2ccccc2)c2ccc(F)cc2)CC1` [Example R59022], which “growth of intracranially injected GBM tumors” value is on record?
A: decreased growth

Molecular target: T1, DGKα (Homo sapiens (Human), UniProt P23743)
Test: Human DGKα kinase activity inhibition assay (ADP-Glo)
Format: biochemical
Conditions: recombinant full-length human DGKα, 55 μM ATP, 7 μM 1,2-dioleoyl-sn-glycerol, read-out: IC50 values of examples in in vitro human DGKa kinase activity inhibition assays
In short: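 Activity was measured as ADP production, detected by luciferase luminescence after removal of unused ATP. The enzyme was baculovirus-expressed full-length human DGKα with a C-terminal FLAG tag. The substrate was 1,2-dioleoyl-sn-glycerol in detergent micelles, and compounds came from 100× DMSO solutions.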
Target sequence in this assay (P23743 other isoform, or with tags, fused parts or gaps): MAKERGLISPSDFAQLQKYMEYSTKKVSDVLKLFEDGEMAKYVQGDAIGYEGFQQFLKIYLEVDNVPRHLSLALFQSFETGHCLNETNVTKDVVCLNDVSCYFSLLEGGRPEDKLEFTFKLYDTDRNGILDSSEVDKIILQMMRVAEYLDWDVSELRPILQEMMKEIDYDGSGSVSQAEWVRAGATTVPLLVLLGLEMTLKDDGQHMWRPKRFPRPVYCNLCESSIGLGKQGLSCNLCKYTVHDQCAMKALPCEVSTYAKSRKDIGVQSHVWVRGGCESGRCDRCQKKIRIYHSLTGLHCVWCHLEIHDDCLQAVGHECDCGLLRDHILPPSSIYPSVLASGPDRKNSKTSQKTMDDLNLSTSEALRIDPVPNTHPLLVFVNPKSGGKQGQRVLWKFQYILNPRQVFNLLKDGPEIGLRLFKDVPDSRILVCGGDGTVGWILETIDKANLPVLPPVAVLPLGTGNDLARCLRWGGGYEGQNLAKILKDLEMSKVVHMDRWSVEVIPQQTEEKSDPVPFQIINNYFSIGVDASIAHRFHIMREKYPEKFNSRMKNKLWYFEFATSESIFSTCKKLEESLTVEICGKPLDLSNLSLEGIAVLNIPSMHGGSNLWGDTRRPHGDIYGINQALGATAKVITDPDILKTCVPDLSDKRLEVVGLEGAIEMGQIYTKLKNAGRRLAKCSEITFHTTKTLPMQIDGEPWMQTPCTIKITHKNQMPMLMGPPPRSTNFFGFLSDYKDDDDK

Q: For `COCCNc1cc2c(cc1C)c(N1CCC(c3nc4cc(C)ccc4o3)CC1)c(C(N)=O)c(=O)n2C` [Example 552, 7-[(2-methoxyethyl)amino]-1,6-dimethyl-4-[4-(5-methyl-1,3-benzoxazol-2-yl)piperidin-1-yl]-2-oxo-1,2-dihydroquinoline-3-carboxamide], which IC50 is on record?
A: 1.6 nM

Q: Which IC50 does the source give for `Cc1cc2c(N3CCC(c4nc(-c5ccccc5C)no4)CC3)c(C#N)c(=O)n(C)c2cc1NCCO` [Example 559, 7-[(2-hydroxyethyl)amino]-1,6-dimethyl-4-{4-[3-(2-methylphenyl)-1,2,4-oxadiazol-5-yl]piperidin-1-yl}-2-oxo-1,2-dihydroquinoline-3-carbonitrile] here?
A: 1.7 nM

Q: For `Cc1cc2c(N3CCC(c4ccn(-c5ccccc5C)n4)CC3)c(C#N)c(=O)n(C)c2cc1Br` [Example 560, 7-bromo-1,6-dimethyl-4-{4-[1-(2-methylphenyl)-1H-pyrazol-3-yl]piperidin-1-yl}-2-oxo-1,2-dihydroquinoline-3-carbonitrile], which IC50 is on record?
A: 105 nM

Q: With `Cc1cc2c(N3CCC(c4ccn(-c5ccccc5C)n4)CC3)c(C#N)c(=O)n(C)c2cc1NCCO` [Example 561, 7-[(2-hydroxyethyl)amino]-1,6-dimethyl-4-{4-[1-(2-methylphenyl)-1H-pyrazol-3-yl]piperidin-1-yl}-2-oxo-1,2-dihydroquinoline-3-carbonitrile] as the compound, how does the IC50 read?
A: 1.4 nM

Q: With `Cc1ccc2oc(C3CCN(c4c(C(N)=O)c(=O)n(C)c5cc(F)c(Br)cc45)CC3)nc2c1` [Example 563, 6-bromo-7-fluoro-1-methyl-4-[4-(5-methyl-1,3-benzoxazol-2-yl)piperidin-1-yl]-2-oxo-1,2-dihydroquinoline-3-carboxamide] as the compound, how does the IC50 read?
A: 1.7 nM

Q: For `Cc1ccc2oc(C3CCN(c4c(C(N)=O)c(=O)n(C)c5cc(F)c(C#N)cc45)CC3)nc2c1` [Example 564, 6-cyano-7-fluoro-1-methyl-4-[4-(5-methyl-1,3-benzoxazol-2-yl)piperidin-1-yl]-2-oxo-1,2-dihydroquinoline-3-carboxamide], which IC50 is on record?
A: 3.3 nM

Q: Which IC50 does the source give for `COc1cc2c(cc1Cl)c(N1CCC(c3nc4cc(C)ccc4o3)CC1)c(C#N)c(=O)n2C` [Example 566, 6-chloro-7-methoxy-1-methyl-4-[4-(5-methyl-1,3-benzoxazol-2-yl)piperidin-1-yl]-2-oxo-1,2-dihydroquinoline-3-carbonitrile] here?
A: 0.3 nM

Q: With `Cc1ccc2oc(C3CCN(c4c(C#N)c(=O)n(C)c5cc(O)c(Cl)cc45)CC3)nc2c1` [Example 567, 6-chloro-7-hydroxy-1-methyl-4-[4-(5-methyl-1,3-benzoxazol-2-yl)piperidin-1-yl]-2-oxo-1,2-dihydroquinoline-3-carbonitrile] as the compound, how does the IC50 read?
A: 2 nM

Q: With `Cc1cc2c(N3CCC(c4cnn(-c5ccccc5C)c4)CC3)c(C#N)c(=O)n(C)c2cc1Br` [Example 579, 7-bromo-1,6-dimethyl-4-{4-[1-(2-methylphenyl)-1H-pyrazol-4-yl]piperidin-1-yl}-2-oxo-1,2-dihydroquinoline-3-carbonitrile] as the compound, how does the IC50 read?
A: 61 nM

Molecular target: T1, DGKα
Test: not given
Conditions: prior art; cited from earlier work
Target sequence in this assay (P23743 whole entry, species assumed): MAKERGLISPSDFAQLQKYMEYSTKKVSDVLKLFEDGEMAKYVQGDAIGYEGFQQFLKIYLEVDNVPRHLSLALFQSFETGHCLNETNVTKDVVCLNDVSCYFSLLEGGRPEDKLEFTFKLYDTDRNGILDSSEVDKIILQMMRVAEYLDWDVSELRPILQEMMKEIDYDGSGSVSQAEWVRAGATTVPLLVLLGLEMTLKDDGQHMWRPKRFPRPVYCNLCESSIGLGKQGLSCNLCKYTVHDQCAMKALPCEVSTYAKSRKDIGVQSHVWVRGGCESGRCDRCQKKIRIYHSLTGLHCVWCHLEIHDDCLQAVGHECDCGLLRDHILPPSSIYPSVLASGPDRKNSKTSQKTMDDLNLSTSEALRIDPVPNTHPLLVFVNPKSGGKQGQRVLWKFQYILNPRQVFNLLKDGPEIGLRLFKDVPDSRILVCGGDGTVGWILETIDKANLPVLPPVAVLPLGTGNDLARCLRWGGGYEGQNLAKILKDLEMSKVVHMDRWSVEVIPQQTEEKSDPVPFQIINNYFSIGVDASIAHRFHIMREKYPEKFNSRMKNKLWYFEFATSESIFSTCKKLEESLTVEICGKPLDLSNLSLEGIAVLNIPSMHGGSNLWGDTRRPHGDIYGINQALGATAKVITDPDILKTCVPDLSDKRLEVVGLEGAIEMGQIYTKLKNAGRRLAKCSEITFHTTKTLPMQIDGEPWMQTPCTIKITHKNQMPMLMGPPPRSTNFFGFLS

Q: With `Cc1ccc2c(C(=O)CN3CCN(C(=O)c4ccco4)CC3)c(C)[nH]c2c1` [AMB639752] as the compound, how does the “inhibitory activity on DGKα” value read?
A: micromolar

Q: Which “inhibitory activity on DGKα” value does the source give for `O=C1/C(=C\C=C\c2ccco2)SC(=S)N1NS(=O)(=O)c1ccccc1` [CU-3] here?
A: sub-micromolar

Q: Which “inhibitory activity on DGKα” value does the source give for `Cc1nc2sccn2c(=O)c1CCN1CCC(=C(c2ccc(F)cc2)c2ccc(F)cc2)CC1` [Ritanserin] here?
A: comparable activity
